Source: PMC3375280 (PLoS ONE, 2012)
Positions count from the first letter of the chain named.

Columns and labels:
[1] = biological target: T1, AT1 S109A mutant receptor (Rattus norvegicus, UniProt P25095, S109A); assay: competition binding, S109A mutant; conditions: for Kd ratio relative to WT (in parentheses): S109A / WT; for Kd: S109A, COS1 membranes, read-out: Binding affinity (Kd)
T1 construct: expressed in transfected cells; host or cells: COS1
T1 sequence (P25095 1-359 S109A): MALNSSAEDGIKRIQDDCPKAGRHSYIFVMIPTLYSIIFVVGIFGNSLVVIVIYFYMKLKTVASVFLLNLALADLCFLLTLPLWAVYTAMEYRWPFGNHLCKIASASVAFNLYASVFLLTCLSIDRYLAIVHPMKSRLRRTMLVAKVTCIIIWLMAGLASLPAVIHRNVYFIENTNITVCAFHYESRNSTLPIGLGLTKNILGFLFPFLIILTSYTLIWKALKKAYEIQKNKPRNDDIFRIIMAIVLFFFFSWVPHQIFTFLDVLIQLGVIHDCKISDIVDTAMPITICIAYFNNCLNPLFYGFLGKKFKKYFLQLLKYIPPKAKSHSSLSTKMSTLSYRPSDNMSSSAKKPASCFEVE
Method: (§1) The Kd and Bmax values of receptor binding were determined by ^125I-[Sar^1, Ile^8] […] Membranes expressing the WT or mutant AT1 receptors were incubated with 100 pM ^125I-[Sar^1, Ile^8] […] The binding reaction was terminated by filtering the incubation mixture through Whatman GF/C glass filters, and the residues were extensively washed further with binding buffer. The bound ligand fraction was determined from the counts per minute (cpm) remaining on the membrane. Binding kinetics values were determined as previously described.

[2] = biological target: T2, AT1 L112A mutant receptor (Rattus norvegicus, UniProt P25095, L112A); assay: competition binding, L112A mutant; conditions: for Kd ratio relative to WT (in parentheses): L112A / WT; for Kd: L112A, COS1 membranes, read-out: Binding affinity (Kd)
T2 construct: expressed in transfected cells; host or cells: COS1
T2 sequence (P25095 1-359 L112A): T1 sequence (P25095 1-359 S109A) with A109S, L112A
Method: as §1

[3] = biological target: T3, AT1 Y113F mutant receptor (Rattus norvegicus, UniProt P25095, Y113F); assay: competition binding, Y113F mutant; conditions: for Kd ratio relative to WT (in parentheses): Y113F / WT; for Kd: Y113F, COS1 membranes, read-out: Binding affinity (Kd)
T3 construct: expressed in transfected cells; host or cells: COS1
T3 sequence (P25095 1-359 Y113F): T1 sequence (P25095 1-359 S109A) with A109S, Y113F
Method: as §1

[4] = biological target: T4, AT1 A114G mutant receptor (Rattus norvegicus, UniProt P25095, A114G); assay: competition binding, A114G mutant; conditions: for Kd ratio relative to WT (in parentheses): A114G / WT; for Kd: A114G, COS1 membranes, read-out: Binding affinity (Kd)
T4 construct: expressed in transfected cells; host or cells: COS1
T4 sequence (P25095 1-359 A114G): T1 sequence (P25095 1-359 S109A) with A109S, A114G
Method: as §1

[5] = biological target: T5, AT1 C76A/A106C/C289A mutant receptor (Rattus norvegicus, UniProt P25095, A106C/C289A/C76A); assay: competition binding, C76A/A106C/C289A mutant; conditions: for Kd ratio relative to WT (in parentheses): C76A/A106C/C289A / WT; for Kd: C76A/A106C/C289A, COS1 membranes, read-out: Binding affinity (Kd)
T5 construct: expressed in transfected cells; host or cells: COS1
T5 sequence (P25095 1-359 C76A/A106C/C289A): T1 sequence (P25095 1-359 S109A) with C76A, A106C, A109S, C289A
Method: as §1

[6] = biological target: T6, AT1 C76A/S115C/C289A mutant receptor (Rattus norvegicus, UniProt P25095, C289A/C76A/S115C); assay: competition binding, C76A/S115C/C289A mutant; conditions: for Kd ratio relative to WT (in parentheses): C76A/S115C/C289A / WT; for Kd: C76A/S115C/C289A, COS1 membranes, read-out: Binding affinity (Kd)
T6 construct: expressed in transfected cells; host or cells: COS1 cells (membranes)
T6 sequence (P25095 1-359 C76A/S115C/C289A): T1 sequence (P25095 1-359 S109A) with C76A, A109S, S115C, C289A
Method: as §1

| Kd ratio relative to WT (in parentheses) [1] | Kd [1] | Kd ratio relative to WT (in parentheses) [2] | Kd [2] | Kd ratio relative to WT (in parentheses) [3] | Kd [3] | Kd ratio relative to WT (in parentheses) [4] | Kd [4] | Kd ratio relative to WT (in parentheses) [5] | Kd [5] | Kd ratio relative to WT (in parentheses) [6] | Kd [6] | Kd ratio relative to WT (in parentheses) ([2]; listed as olmesartan) | Kd ratio relative to WT (in parentheses) ([3]; listed as olmesartan) | SMILES |
| --- | --- | --- | --- | --- | --- | --- | --- | --- | --- | --- | --- | --- | --- | --- |
| 0.7 fold | 34 ± 11 nM | 0.6 fold | 31 ± 5 nM | 8.1 fold | 388 ± 54 nM | 3.8 fold | 183 ± 17 nM | 4.0 fold | 193 ± 73 nM | 14 fold | 657 ± 114 nM |  |  | CCCc1nc(C(C)(C)O)c(C(N)=O)n1Cc1ccc(-c2cc(Cc3ccc(O)cc3)ccc2-c2nnn[nH]2)cc1 [R794847] |
| 1.1 fold | 2.5 ± 0.8 nM | 12 fold | 27 ± 7 nM | 23 fold | 52 ± 7 nM | 1.7 fold | 4 ± 1.4 nM | 3.9 fold | 8.9 ± 4 nM | 2.8 fold | 6.5 ± 1.8 nM | > 10 fold | > 10 fold | CCCc1nc(C(C)(C)O)c(C(=O)O)n1Cc1ccc(-c2ccccc2-c2nnn[nH]2)cc1 [Olmesartan, olmesartan, reference compound] |
| 1.1 fold | 0.9 ± 0.2 nM | 54 fold | 43 ± 12 nM | 21 fold | 17 ± 3 nM | 1.4 fold | 1.1 ± 0.1 nM | 5.1 fold | 4.1 ± 1 nM | 5.3 fold | 4.2 ± 1.6 nM |  |  | CCCc1nc(C(C)(C)O)c(C(N)=O)n1Cc1ccc(-c2ccccc2-c2nnn[nH]2)cc1 [R239470] |
